Experiment [1] concerns OE21 cell. The experiment in a line: inhibitory activity on cell proliferation (Cell-Titer-Glo), OE21. The class given is cell-based. The following applies: Homo sapiens, OE21, 72 h, incubation for 3 days. The source says:
Purpose of the assay: to detect the inhibitory activity of the test compounds on cell proliferation.
Principle of the assay: the luciferase in a Cell-Titer-Glo reagent produces oxidized luciferin with luciferin, oxygen and ATP as reaction substrates, and releases energy in the form of light. Since the luciferase reaction requires ATP, the total amount of light generated by the reaction is proportional to the total amount of ATP that reflects cell viability.
Cell Titer-Glo cell viability assay kit with luminescence (Promega #G7573)
According to the schematic diagram of the cell seed plate, cells were seeded in a 384- or 96-well plate at a density of 1000 cells per well and 25 μL per well, and 25 μL of PBS was added to the wells near edge of the place where no cells were seeded.
(1) The stock solution of the compounds has a concentration of 10 mM, and the compounds were diluted with DMSO to an initial concentration of 4 mM. The compounds were added to the plate with stock solution of compounds, 9 μL per well.
(2) The compounds were diluted with an ECHO liquid workstation, where 125 nL of compounds were added to each well of the cell plate, 125 nL of DMSO was added to each of the cell well in columns 2 and 23, and 125 nL of DMSO was added to each PBS well in columns 1 and 24.
2.3 After addition of the compounds, the cell plate was centrifuged at 1000 rpm for 1 min, and then placed in a 37° C., 5% CO2 incubator for incubation for 3 days.
The cell plate was taken out from the incubator and equilibrated at room temperature for 30 minutes. 25 μL of Cell-Titer-Glo reagent was added to each well, shaken for one minute to allow well mixed, and centrifuged at 1000 rpm for 1 minute. After 10 minutes, the plate was read on PerkinElmer Envision, and the […] reading time was set to 0.2 second.

Experiment [2] relates to subcutaneous xenograft tumor of human gastric cancer NCI-N87 cells. In words: Assay Example 4: in vivo pharmacodynamics, NCI-N87 xenograft. Details: species or system BALB/c nude mouse. The following applies: for Tumor volume (mm3) (Day 28): NCI-N87 xenograft, Mean + SEM; for T/C (%) / TGI (%): day 28. As for the experimental part: Purpose of the assay: to evaluate the in vivo efficacy of test compounds disclosed herein on subcutaneous xenograft tumor of human gastric cancer NCI-N87 cells in a BALB/c nude mouse model.
Animals of the assay: female BALB/c nude mice, 6-8 weeks old, weighted 18-22 grams; supplier: Shanghai Ling Chang Biotechnology Co., Ltd.
Human gastric cancer NCI-N87 cells were cultured in monolayer in vitro. The culture conditions were RPMI-1640 medium plus 10% fetal bovine serum, 100 U/mL penicillin, 100 U/mL streptomycin and 2 mM glutamine, 37° C., 5% CO2. The passaging was performed by conventional digestion with trypsin-EDTA twice a week. When the cell saturation was 80%-90%, the cells were collected, counted and inoculated.
0.2 mL (10×10^6) of NCI-N87 cells (PBS+Matrigel, 1:1) were inoculated subcutaneously on the right back of each mouse. When the average tumor volume reached 158 mm^3, administration to each group was started.
The test compounds were formulated into a 0.04 mg/mL and 0.08 mg/mL clear solution in and the solvents of 10% NMP (N-methylpyrrolidone)+10% ethylene glycol stearate+80% water.
The assay index is to investigate whether tumor growth is inhibited, delayed or cured. Tumor diameter was measured twice a week with a vernier caliper. The calculation formula of tumor volume is: V=0.5a×b^2, wherein a and b represent the long and short diameters of tumor, respectively.
The antitumor efficacy of the compounds were evaluated by TGI (%) or tumor proliferation rate T/C (%). TGI (%) reflects the tumor growth inhibition rate. TGI (%) is calculated as follows: TGI (%)=[1−(average tumor volume at the end of administration for a certain treatment group−average tumor volume at the beginning of administration for this treatment group)/(average tumor volume at the end of treatment for a solvent control group−average tumor volume at the beginning of administration for this solvent control group)]×100%.
Tumor proliferation rate T/C (%): the calculation formula is as follows: T/C (%)=average tumor volume at the end of administration for a certain treatment group/average tumor volume at the end of treatment for the solvent control group×100%.
Statistical analysis included the mean and standard error (SEM) of tumor volume at each time point in each group (See Table 5-1 for specific data). […] The comparison between two groups was analyzed by T-test, and the comparison among three or more groups was analyzed by one-way ANOVA. […] All data analysis was carried out with SPSS 17.0. p<0.05 was considered a significant difference.

Experiment [3] has as its target T1, CYP1A2 (Homo sapiens, UniProt P05177).
T1 construct: in the assay of CYP enzyme activity in human liver microsome; from tissue; host or cells: human liver microsome
T1 sequence (P05177 1-516): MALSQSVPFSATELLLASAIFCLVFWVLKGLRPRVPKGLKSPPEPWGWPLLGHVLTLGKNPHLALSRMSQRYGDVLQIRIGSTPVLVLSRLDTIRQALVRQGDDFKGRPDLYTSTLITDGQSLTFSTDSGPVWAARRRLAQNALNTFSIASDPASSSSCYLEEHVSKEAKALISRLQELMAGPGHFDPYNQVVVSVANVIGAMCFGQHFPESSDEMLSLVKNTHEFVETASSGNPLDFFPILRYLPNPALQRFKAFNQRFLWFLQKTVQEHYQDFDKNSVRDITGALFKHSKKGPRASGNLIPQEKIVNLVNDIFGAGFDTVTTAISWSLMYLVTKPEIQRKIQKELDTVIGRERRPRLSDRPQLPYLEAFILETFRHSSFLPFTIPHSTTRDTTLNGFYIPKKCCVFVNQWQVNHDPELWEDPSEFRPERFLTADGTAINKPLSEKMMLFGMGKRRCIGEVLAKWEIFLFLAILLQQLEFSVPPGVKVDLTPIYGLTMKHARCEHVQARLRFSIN
The experiment in a line: inhibition of CYP enzyme activity in human liver microsome, CYP1A2. The format is in vitro ADME. The text has this:
The results of the compounds disclosed herein and the reference compound Poziotinib in the assay of CYP enzyme activity in human liver microsome were shown in the following table (Table 8).
In general terms: Liver microsomes are vesicles of endoplasmic reticulum, rich in cytochrome P450 enzymes.

Each structure is given as a SMILES string. pIC50: −log10 of the molar value. Like-named read-outs stand apart in the source and are kept apart here.

For the molecule `C=CC(=O)N1[C@@H]2CC[C@H]1C[C@H](Oc1cc3c(Nc4ccc(Cl)c(Cl)c4F)ncnc3cc1OC)C2` [Example 8], in experiment [1], the pIC50 is 9.33.
As to `C=CC(=O)N1[C@@H]2CC[C@H]1C[C@H](Nc1cc3c(Nc4ccc(Cl)c(Cl)c4F)ncnc3cc1OC)C2` [Example 38], in experiment [2] (0.4 mg/kg), the “Tumor volume (mm3) (Day 28)” value is listed as 47 ± 13 mm3, the “T/C (%)” value was 7.51% and the “TGI (%)” value is given as 123.72%. In experiment [2] (0.8 mg/kg), the “Tumor volume (mm3) (Day 28)” value came to 15 ± 3 mm3, the “T/C (%)” value worked out at 2.40% and the “TGI (%)” value turned out to be 130.56%. Moreover, the pIC50 in experiment [3] was < 4.30. The “inhibition of CYP enzyme CYP1A2” value in experiment [3] (microsomes) is reported as “no inhibitory activity”. In experiment [1], this molecule gave a pIC50 of 9.28.
Turning to `C=CC(=O)N1CCC(Oc2cc3c(Nc4ccc(Cl)c(Cl)c4F)ncnc3cc2OC)CC1` [Poziotinib, reference compound], in experiment [2] (0.4 mg/kg), the “Tumor volume (mm3) (Day 28)” value stood at 84 ± 9 mm3, the “T/C (%)” value is given as 13.42% and the “TGI (%)” value was 115.81%. For the same molecule, in experiment [2] (0.8 mg/kg), the “Tumor volume (mm3) (Day 28)” value is 28 ± 8 mm3, the “T/C (%)” value was found to be 4.47% and the “TGI (%)” value was determined as 127.78%. Further, the “inhibition of CYP enzyme CYP1A2” value in experiment [3] (human liver microsome) was “no inhibitory activity”. The pIC50 in experiment [3] (human liver microsome, read-out: inhibition of CYP enzyme CYP1A2) was < 4.30.

(Values after patent US20210078958A1, “QUINAZOLINE DERIVATIVE AND USE THEREOF” (MEDSHINE DISCOVERY INC., priority 2017, published 2021).)
